“And” between values parts separate entries of the source, which are not always exact repeats. Equal entries are not always repeated. Toxic doses and inconclusive results are not listed.
Tested on: L1210 leukemia ip in BDF1 mice, survival T/C
Experiment: NCI In Vivo Anticancer Drug Screen. Data for tumor model L1210 Leukemia (intraperitoneal) in B6D2F1 (BDF1) mice
Details: endpoint: mean survival time, higher = longer survival
Outline: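 Mice bearing the transplanted tumor received compound or vehicle. Survival of the treated group was divided by that of the vehicle-treated control group to give the ratio.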

[1] = dose: 50.0 mg/kg/injection, schedule: Q01DX009 (ip), vehicle: saline
[2] = dose: 100.0 mg/kg/injection, schedule: Q01DX009 (ip), vehicle: saline
[3] = dose: 100.0 mg/kg/injection, schedule: Q04DX003 (ip), vehicle: saline
[4] = dose: 200.0 mg/kg/injection, schedule: Q01DX009 (ip), vehicle: saline
[5] = dose: 200.0 mg/kg/injection, schedule: Q04DX003 (ip), vehicle: saline
[6] = dose: 100.0 mg/kg/injection, schedule: Q04DX003 (ip), vehicle: Klucel (hydroxypropylcellulose) (HPC)

## [N-]=[N+]=CC(=O)NCC(=O)NO
dose: 50.0 mg/kg/injection, schedule: Q01DX001 (ip), vehicle: water
  T/C: 117 % of control
dose: 75.0 mg/kg/injection, schedule: Q01DX009 (ip), vehicle: water
  T/C: 95 % of control
dose: 100.0 mg/kg/injection, schedule: Q01DX001 (ip), vehicle: water
  T/C: 96 % of control
dose: 100.0 mg/kg/injection, schedule: Q01DX009 (ip), vehicle: other
  T/C: 100 % of control
dose: 150.0 mg/kg/injection, schedule: Q01DX009 (ip), vehicle: water
  T/C: 120 % of control
dose: 180.0 mg/kg/injection, schedule: Q01DX001 (ip), vehicle: water
  T/C: 116 % of control
dose: 200.0 mg/kg/injection, schedule: Q01DX001 (ip), vehicle: water
  T/C: 102 % of control
dose: 200.0 mg/kg/injection, schedule: Q01DX009 (ip), vehicle: other
  T/C: 101 % of control
dose: 270.0 mg/kg/injection, schedule: Q01DX001 (ip), vehicle: water
  T/C: 110 % of control
dose: 270.0 mg/kg/injection, schedule: Q01DX009 (ip), vehicle: water
  T/C: 155 % of control
dose: 300.0 mg/kg/injection, schedule: Q01DX009 (ip), vehicle: other
  T/C: 111 % of control
dose: 300.0 mg/kg/injection, schedule: Q01DX009 (ip), vehicle: water
  T/C: 123 % of control
dose: 400.0 mg/kg/injection, schedule: Q01DX001 (ip), vehicle: water
  T/C: 108 % of control and 111 % of control and 113 % of control
dose: 450.0 mg/kg/injection, schedule: Q01DX008 (ip), vehicle: water
  T/C: 150 % of control
dose: 500.0 mg/kg/injection, schedule: Q01DX009 (ip), vehicle: other
  T/C: 97 % of control
dose: 600.0 mg/kg/injection, schedule: Q01DX009 (ip), vehicle: water
  T/C: 91 % of control
dose: 1600.0 mg/kg/injection, schedule: Q01DX001 (ip), vehicle: water
  T/C: 90 % of control

## O=[N+]([O-])c1ccc(N/N=C/C(O)C(O)C(O)CO)cc1 (stereo not given)
dose: 50.0 mg/kg/injection, schedule: Q04DX002 (ip), vehicle: saline with Tween-80
  T/C: 106 % of control
dose: 100.0 mg/kg/injection, schedule: Q04DX002 (ip), vehicle: saline with Tween-80
  T/C: 106 % of control
dose: 200.0 mg/kg/injection, schedule: Q04DX002 (ip), vehicle: saline with Tween-80
  T/C: 87 % of control

## Nc1cc(S(N)(=O)=O)ccc1N1CCCCC1
dose: 100.0 mg/kg/injection, schedule: Q04DX003 (ip), vehicle: saline with Tween-80
  T/C: 95 % of control
dose: 200.0 mg/kg/injection, schedule: Q04DX003 (ip), vehicle: saline with Tween-80
  T/C: 96 % of control
dose: 400.0 mg/kg/injection, schedule: Q04DX003 (ip), vehicle: saline with Tween-80
  T/C: 101 % of control

## C=CCc1cn(C2OC(COC(=O)c3ccccc3)C(OC(=O)c3ccccc3)C2OC(=O)c2ccccc2)c(=O)[nH]c1=O (stereo not given)
dose: 12.5 mg/kg/injection, schedule: Q01DX005 (ip), vehicle: saline
  T/C: 92 % of control
dose: 12.5 mg/kg/injection, schedule: Q01DX009 (ip), vehicle: saline
  T/C: 95 % of control
dose: 25.0 mg/kg/injection, schedule: Q01DX005 (ip), vehicle: saline
  T/C: 92 % of control
dose: 25.0 mg/kg/injection, schedule: Q01DX009 (ip), vehicle: saline
  T/C: 95 % of control
dose: 50.0 mg/kg/injection, schedule: Q01DX005 (ip), vehicle: saline
  T/C: 94 % of control
[1]
  T/C: 98 % of control

## NC(=S)NNC(=O)Nc1ccc(F)c(Cl)c1
dose: 12.5 mg/kg/injection, schedule: Q01DX009 (ip), vehicle: other
  T/C: 94 % of control
dose: 25.0 mg/kg/injection, schedule: Q01DX009 (ip), vehicle: other
  T/C: 93 % of control
dose: 50.0 mg/kg/injection, schedule: Q01DX009 (ip), vehicle: other
  T/C: 96 % of control

## Cc1cc(C)c2ccc(NC(=O)CCC(=O)O)nc2n1
dose: 100.0 mg/kg/injection, schedule: Q01DX001 (ip), vehicle: saline
  T/C: 95 % of control

## CCCCN=CC(C)(C)NCCCC
[1]
  T/C: 95 % of control
[2]
  T/C: 90 % of control
[3]
  T/C: 106 % of control
[4]
  T/C: 88 % of control
[5]
  T/C: 104 % of control

## CCOC(=O)c1ccccc1NC(=O)c1ccccc1
dose: 100.0 mg/kg/injection, schedule: Q04DX002 (ip), vehicle: Klucel (hydroxypropylcellulose) (HPC)
  T/C: 100 % of control
dose: 200.0 mg/kg/injection, schedule: Q04DX002 (ip), vehicle: Klucel (hydroxypropylcellulose) (HPC)
  T/C: 103 % of control
dose: 400.0 mg/kg/injection, schedule: Q04DX002 (ip), vehicle: Klucel (hydroxypropylcellulose) (HPC)
  T/C: 103 % of control

## NC(=S)N/N=C/c1c(Cl)[nH]c2ccccc12
dose: 50.0 mg/kg/injection, schedule: Q04DX002 (ip), vehicle: saline
  T/C: 98 % of control
dose: 100.0 mg/kg/injection, schedule: Q04DX002 (ip), vehicle: saline
  T/C: 102 % of control
dose: 200.0 mg/kg/injection, schedule: Q04DX002 (ip), vehicle: saline
  T/C: 98 % of control

## COC(=O)Cc1ccc(Br)cc1
dose: 50.0 mg/kg/injection, schedule: Q01DX009 (ip), vehicle: saline with Tween-80
  T/C: 106 % of control
dose: 100.0 mg/kg/injection, schedule: Q01DX009 (ip), vehicle: saline with Tween-80
  T/C: 98 % of control
dose: 200.0 mg/kg/injection, schedule: Q01DX009 (ip), vehicle: saline with Tween-80
  T/C: 88 % of control

## CCN(CC)CCCNc1ncnc2c1C(c1ccccc1)c1ccccc1-2 (stereo not given)
dose: 5.0 mg/kg/injection, schedule: Q01DX001 (ip), vehicle: saline
  T/C: 98 % of control
dose: 10.0 mg/kg/injection, schedule: Q01DX001 (ip), vehicle: saline
  T/C: 96 % of control
dose: 20.0 mg/kg/injection, schedule: Q01DX001 (ip), vehicle: saline
  T/C: 93 % of control
dose: 40.0 mg/kg/injection, schedule: Q01DX001 (ip), vehicle: saline
  T/C: 93 % of control

## NC(=O)N/N=C1/CCN2CCCc3cccc1c32
dose: 12.5 mg/kg/injection, schedule: Q01DX009 (ip), vehicle: Klucel (hydroxypropylcellulose) (HPC)
  T/C: 95 % of control
dose: 25.0 mg/kg/injection, schedule: Q01DX009 (ip), vehicle: Klucel (hydroxypropylcellulose) (HPC)
  T/C: 103 % of control
dose: 25.0 mg/kg/injection, schedule: Q04DX003 (ip), vehicle: Klucel (hydroxypropylcellulose) (HPC)
  T/C: 103 % of control
dose: 50.0 mg/kg/injection, schedule: Q01DX009 (ip), vehicle: Klucel (hydroxypropylcellulose) (HPC)
  T/C: 93 % of control
dose: 50.0 mg/kg/injection, schedule: Q04DX003 (ip), vehicle: Klucel (hydroxypropylcellulose) (HPC)
  T/C: 97 % of control
[6]
  T/C: 95 % of control

## COC1OC2COc3ccccc3OC2C(N)C1N(C)c1ccccc1 (stereo not given)
dose: 18.75 mg/kg/injection, schedule: Q01DX001 (ip), vehicle: saline with Tween-80
  T/C: 98 % of control
dose: 37.5 mg/kg/injection, schedule: Q01DX001 (ip), vehicle: saline with Tween-80
  T/C: 96 % of control
dose: 75.0 mg/kg/injection, schedule: Q01DX001 (ip), vehicle: saline with Tween-80
  T/C: 93 % of control

## ClC(Cl)(Cl)C(Cl)(Cl)OC(Cl)(Cl)C(Cl)(Cl)Cl
dose: 100.0 mg/kg/injection, schedule: Q01DX001 (ip), vehicle: Klucel (hydroxypropylcellulose) (HPC)
  T/C: 107 % of control
[6]
  T/C: 100 % of control
dose: 200.0 mg/kg/injection, schedule: Q01DX001 (ip), vehicle: Klucel (hydroxypropylcellulose) (HPC)
  T/C: 112 % of control
dose: 200.0 mg/kg/injection, schedule: Q04DX003 (ip), vehicle: Klucel (hydroxypropylcellulose) (HPC)
  T/C: 92 % of control
dose: 400.0 mg/kg/injection, schedule: Q01DX001 (ip), vehicle: Klucel (hydroxypropylcellulose) (HPC)
  T/C: 95 % of control
dose: 400.0 mg/kg/injection, schedule: Q04DX003 (ip), vehicle: Klucel (hydroxypropylcellulose) (HPC)
  T/C: 95 % of control

## CCCn1c(=S)[nH]c2ccccc2c1=O
[2]
  T/C: 95 % of control
[3]
  T/C: 88 % of control
[4]
  T/C: 107 % of control
[5]
  T/C: 86 % of control
dose: 400.0 mg/kg/injection, schedule: Q01DX009 (ip), vehicle: saline
  T/C: 101 % of control
dose: 400.0 mg/kg/injection, schedule: Q04DX003 (ip), vehicle: saline
  T/C: 96 % of control

## CCN(CC)CCCC(C)Nc1cc(N)nc2nccnc12 (stereo not given)
dose: 25.0 mg/kg/injection, schedule: Q04DX003 (ip), vehicle: saline
  T/C: 102 % of control
dose: 50.0 mg/kg/injection, schedule: Q04DX003 (ip), vehicle: saline
  T/C: 111 % of control
[3]
  T/C: 107 % of control
